Data: patent publication US5834012A, “Lipid complexed topoisomerase I inhibitors” (Perez-Soler; Roman, priority 1995, dated 1998)
Counter-ions that a name gives are not always drawn.

Legend:
[1] = Lipids screened for complexation with CPT (fluorescent microscopy; % bound); format: physicochemical; details: for % bound to CPT / Crystals: Table 1; for Crystals: lipid alone with CPT, fluorescent microscopy
From the text: (§1) In order to prepare LC-CPT (a liposomal preparation containing CPT within spherical lipid vesicles) various individual lipids were screened for complexation with CPT. […] CPT crystals and lipid/CPT complexes of >0.4 microns can be visualized under a fluorescent microscope (since CPT fluoresces due to its rigid ring structure). […] Therefore, the better a lipid complexes with CPT the less CPT crystals are formed, and the more lipid/CPT complexes are formed.
Drug/lipid Complex Preparation. CPT was mixed in ratios of from 2:1 to 25:1 w/w lipid:drug in chloroform-methanol (8:1). For studies where CPT was radiolabeled, approximately 0.02 uCi/ml [^3 H] CPT was added to the preparation. Trace quantities of ^14 C labeled cholesterol was added to samples requiring lipid labeling. For small samples, the lipids were dried in 12×75 mm culture tubes under a stream of nitrogen gas. For large samples, a rotavapor (Buchi RE140, Switzerland) was used to dry lipids in a 100 to 1000 ml round bottom flasks. […] For liposomal CPT 0.9% Nace was used. Preparations were screened for lipid entrapment by light and fluorescent microscopy (Nikon Labophot-2, Japan). […]
Lipids of varying carbon chain length, charge, and saturation, alone or in different combinations, were empirically screened for their ability to form liposomes incorporating CPT by fluorescent microscopy.

[2] = Chromatographic evaluation of CPT in the liposome fraction; format: physicochemical; details: lipid used alone
Experimental: Chromatography. A 30 cm agarose 0.5M column is used to separate liposome-bound drug from free CPT. PBS is used as the mobile phase for all preparations. Twenty samples were collected in 3 mL aliquots for a total of 60 mLs. Fluorescence and scintigraphy were used to detect encapsulated and free drug. Fluorimetry. Aliquots of 20 μl from each collection tube were transferred to cuvets containing 2 ml methanol. Fluorimetry was performed as described by Hart et al. (Hart et al., 1969). Fluorescence was measured at an excitation wavelength of 370 nm and emission wavelength of 434 nm (Perkin-Elmer MPF44A, Norwalk, Conn., U.S.A.). Two ml of ethanol was used as a control for machine calibration.
Chromatographic evaluation confirmed that <5% of CPT was incorporated in the liposome fraction of the preparation, the rest presumably being solubilized or in small particles not detectable by fluorescence microscopy.
These observation led the present inventors to other negatively charged lipids. […] Chromatographic evaluation of these preparations confirmed again that <5% of CPT eluted with the liposome fraction, the rest of the drug eluting later in a large number of consecutive fractions. By differential centrifugation, the lipid-binding efficiency of cardiolipin was about 67% and that of DO-NGPE 97%. DO-NGPE-CPT was, therefore, selected for further biological and pharmacological studies.

[3] = Complexation with CPT / liposome formation by fluorescent microscopy; format: physicochemical
From the text: as §1
Drug/lipid Complex Preparation. CPT was mixed in ratios of from 2:1 to 25:1 w/w lipid:drug in chloroform-methanol (8:1). For studies where CPT was radiolabeled, approximately 0.02 uCi/ml [^3 H] CPT was added to the preparation. Trace quantities of ^14 C labeled cholesterol was added to samples requiring lipid labeling. For small samples, the lipids were dried in 12×75 mm culture tubes under a stream of nitrogen gas. For large samples, a rotavapor (Buchi RE140, Switzerland) was used to dry lipids in a 100 to 1000 ml round bottom flasks. The lipophilic film was then vortexed in a Touch Mixer Model 231 (Fisher Scientific, Fair Lawn, N.J., U.S.A.) for one minute in sterile phosphate buffered saline (pH 7.4). For liposomal CPT 0.9% Nace was used. Preparations were screened for lipid entrapment by light and fluorescent microscopy (Nikon Labophot-2, Japan).
To increase the cytotoxic effects of LC-CPT relative to CPT, lipid must surround (encapsulate) the CPT to protect it from inactivation. Since the cytotoxicity of LC-CPT was similar to that of the free drug, the CPT was not encapsulated by the lipid (DO-NGPE). Encapsulation (and concomitant protection from inactivation) can be accomplished by surrounding CPT in a liposome (a unilamellar or multilamellar structure). […] Therefore, LC-CPT appears to only contain enough lipid to form micellar aggregates of CPT or to form a hydrophobic scaffold for CPT-CPT aggregation.
The inventors attempted to protect the CPT from inactivation by surrounding the existing DO-NGPE:CPT complex with a liposome (Table 3) or by adding another lipid to DO-NGPE to form a liposome. […]

[4] = Hertzberg et al., 1989; cited from earlier work
human tumors = details: cited from earlier work

Row | Compound | % bound to CPT [1] | Crystals [1] | also measured
1 | CCCCCCCCCCCCCC(=O)OC[C@H](COP(=O)(O)OCC(O)CO)OC(=O)CCCCCCCCCCCCC (mixture of isomers) [Dimyristoyl PG, 1,2-Dimyristoyl-sn-Glycero-3-[Phospho-rac-(1-glycerol)]] | < 5% | yes | 
2 | CCCCCCCC/C=C\CCCCCCCC(=O)OC[C@H](COP(=O)(O)OCC(O)CO)OC(=O)CCCCCCC/C=C\CCCCCCCC (mixture of isomers) [Dioleoyl PG, 1,2-Dioleoyl-sn-Glycero-3-[Phospho-rac-(1-glycerol)]] | < 5% | no | interaction with CPT (in words) [1]: lack of drug crystallization; CPT incorporated in / eluted with the liposome fraction [2]: < 5%
3 | CCCCCCCCCCCCCCCCCC(=O)OC[C@H](COP(=O)([O-])OCC[N+](C)(C)C)OC(=O)CCCCCCCCCCCCC [1-Stearoyl, 2-Myristdyl PC] | < 5% | yes | 
4 | CCCCCCCC/C=C\CCCCCCCC(=O)O[C@H](COC(=O)CCCCCCCCCCCCCCCCC)COP(=O)([O-])OCC[N+](C)(C)C [1-Stearoyl, 2-Oleoyl PC] | < 5% | yes | 
5 | CCCCCCCC/C=C\CCCCCCCC(=O)OC[C@H](COP(=O)(O)OCCN)OC(=O)CCCCCCC/C=C\CCCCCCCC [DOPE, 1,2-Dioleoyl-sn-Glycero-3-Phosphoethanolamine] |  |  | complexation with CPT / liposome formation / CPT crystals (in words) [3]: complex well with CPT
6 | CCCCCCCC/C=C\CCCCCCCC(=O)OCC(C[N+](C)(C)C)OC(=O)CCCCCCC/C=C\CCCCCCCC (stereo not shown) [DOTAP, 1,2-Dioleoyl-3-Trimethylammonium-Propane] |  |  | complexation with CPT / liposome formation / CPT crystals (in words) [3]: complex well with CPT
7 | CCCCCC(=O)OC[C@H](COP(=O)([O-])OCC[N+](C)(C)C)OC(=O)CCCCC [Dicaproyl PC] | < 5% | yes | 
8 | CCCCCCCC/C=C/CCCCCCCC(=O)OC[C@H](COP(=O)([O-])OCC[N+](C)(C)C)OC(=O)CCCCCCC/C=C/CCCCCCCC [Dielaidoyl PC] |  |  | complexation with CPT / liposome formation / CPT crystals (in words) [3]: complex well with CPT
9 | CCCCCCCCCCCCCC(=O)OC[C@H](COP(=O)([O-])OCC[N+](C)(C)C)OC(=O)CCCCCCCCCCCCC [Dimyristoyl PC, 1,2-Dimyristoyl-sn-Glycero-3-Phosphocholine] | < 5% | yes | 
10 | CCCCCCCCCCCCCCCCCC(=O)OC[C@H](COP(=O)([O-])OCC[N+](C)(C)C)OC(=O)CCCCCCCCCCCCCCCCC [Distearoyl PC] | < 5% | yes | 
11 | CC[C@@](O)(C(=O)O)c1cc2n(c(=O)c1CO)Cc1cc3ccccc3nc1-2 [sodium salt of CPT, camptothecin sodium] |  |  | activity relative to closed lactone ring base (in words) [4]: significantly less active than the lipophilic base compound; dose-limiting toxicity (human tumors; clinical trials, early 1970's): dose-limiting leukopenia, cystitis, and gastroenteritis; clinical antitumor activity (in words) (human tumors; intestinal tumors metastatic to the liver): demonstrated activity in human tumors
